# Patent publication US20110319340A1, “METHODS FOR TREATING CANCER” (The Board of Regents, The University of Texas System, priority 2008, published 2011)
# How the values were obtained:
# Assay type in all cases: cell-based
# snail homolog 3 (SNAI3) = test: Gene array analysis of SNAI3 expression in human coronary artery endothelial cells; conditions: TNF alpha 5 ng/ml, 6 hours
# Experimental: (§1) Human coronary artery endothelial cells (Cambrex BioScience; Walkersville, Md.) were split into T-75 flasks (BD Falcon) and cultured in endothelial cell basal medium (EBM) with 2% fetal bovine serum (FBS) and growth factors (SingleQuotsTM, Clonetics, San Diego, Calif.) in 5% CO2 at 37° C. […] After 6 hours of incubation, total RNA was isolated using RNAqueous kits (Ambion, Austin, Tex.) as described by the manufacturer. mRNA samples were reverse-transcribed using Taqman Reverse Transcription Reagents Kits (Applied Biosystems, Inc.) and analyzed by gene array analysis using […] plus 2 chip sets (Affimetrix).
# [1] = system: melanoma cell adhesion molecule (MCAM); test: Gene array analysis of MCAM expression in human coronary artery endothelial cells; conditions: TNF alpha 5 ng/ml, 6 hours
# Experimental: as §1, with “(Affimetrix). All procedures and analysis of gene array data were performed in the UTMB Molecular Genomics and MicroArray Core Facility.” for “(Affimetrix).”
# [2] = system: bone morphogenetic protein 9 (BMP9); test: Gene array analysis of BMP9 expression in human coronary artery endothelial cells; conditions: TP508 50 μg/ml or TNF alpha 5 ng/ml, 6 hours
# Experimental: Human coronary artery endothelial cells (Cambrex BioScience; Walkersville, Md.) were split into T-75 flasks (BD Falcon) and cultured in endothelial cell basal medium (EBM) with 2% fetal bovine serum (FBS) and growth factors (SingleQuotsTM, Clonetics, San Diego, Calif.) in 5% CO2 at 37° C. […] All procedures and analysis of gene array data were performed in the UTMB Molecular Genomics and MicroArray Core Facility.
# [3] = system: human microvascular endothelial cells; test: Phase contrast micrographs of human microvascular endothelial cells co-incubated with KML4A cells; conditions: after 22 hours; TP508 50 μg/ml 8 hours pretreatment; thrombin 2 U/ml or TNF alpha 5 ng/ml 16 hours
# Experimental: Human microvascular endothelial cells (Cambrex BioScience; Walkersville, Md.) were plated on 48-well tissue culture plates (BD Falcon) 30,000 cells per well, and cultured in endothelial cell basal medium (EBM) with 2% fetal bovine serum (FBS) and growth factors (SingleQuots™, Clonetics, San Diego, Calif.) in 5% CO2 at 37° C. for three days. […] Photomicrographs were captured at various times after addition of KML4A cells using an inverted Leitz Diavert microscope (original magnification, 200×) equipped with Spot Idea™ digital camera (Diagnostic Instruments, Inc.). Micrographs were taken at the center of each well to avoid any differences in original cell density.
# [4] = system: metastasis associated in colon cancer 1 (MACC1); test: Gene array analysis of MACC1 mRNA in human coronary artery endothelial cells; conditions: TNF alpha 5 ng/ml, 6 hours
# Experimental: as §1, with “(Affimetrix). All procedures and analysis of gene array data were performed in the UTMB Molecular Genomics and MicroArray Core Facility.” for “(Affimetrix).”
# [5] = system: bovine aortic endothelial cells; test: Binding of KML4A colon cancer cells to bovine aortic endothelial cell monolayers; conditions: TNF alpha 50 ng/ml for 24 hours; binding after 30 minutes
# Experimental: In this experiment, bovine aortic endothelial cells (BAEC; Cambrex BioScience; Walkersville, Md.) were plated in 24-well plastic tissue culture plates (BD Falcon™) at a density of 35,000 cells per cm^2 and cultured in endothelial cell basal medium (EBM) with 2% fetal bovine serum (FBS) and growth factors (SingleQuots™, Clonetics, San Diego, Calif.) in 5% CO2 at 37° C. for three days. BAEC monolayer cultures were then pretreated with saline (Control) or TP508 (TP) and then treated with saline or TNF alpha (TNF, 50 ng/ml) for 24 hours. KML4A cells were labeled with fluorescent CytoTracker™ as described in Example 1 above and added to the BAEC monolayers in EBM medium complete with fetal bovine serum and SingleQuot growth factor supplements (30,000 cells per well). After thirty (30) minutes, the cell monlayers were rinsed two times to remove unbound KML4A cells and the monolayers were solubilized using 200 μl of Cell Solubilizing Solution (Cell Biolabs, Inc.). Fluorescence of the solubilized KML4A that had bound to the endothelial cells was measured by transferring aliquots of the solubilized monolayers to 96-well black plates and reading them in a SyQuest BioLabs Fluorescent Plate Reader (480 nm/520 nm). Data is expressed as Relative Fluorescence Units.
# [6] = system: human umbilical vein endothelial cells; test: Transendothelial migration of KML4A tumor cells through human umbilical vein endothelial cell monolayer; conditions: thrombin 2 U/ml for 24 hours; migration after 18 hr
# Excerpt: In this experiment, as in Example 1, KML4A tumor cells derived from a human colon cancer and selected for repeated metastasis to the liver (Morikawa et al., supra) were harvested from established cultures and labeled with fluorescent CytoTracker™ (Cell Biolabs, inc.) and re-established as a uniform cell suspension. Human endothelial cell monolayers were established in transmembrane inserts supplied by Cell Biolabs, Inc., by plating 50,000 human umbilical vein endothelial cells (Cambrex BioScience; Walkersville, Md.) per insert and culturing them in endothelial cell basal medium (EBM) with 2% fetal bovine serum (FBS) and growth factors (SingleQuots™, Clonetics, San Diego, Calif.) in 5% CO2 at 37° C. for three days. […] Fluorescently labeled KML4A tumor cells (35,000 cells per insert in serum-free medium containing 1% bovine serum albumin) were then added to the culture inserts and the inserts placed into wells of a 24-well tissue culture plate (BD Falcon) with 0.5 ml of growth medium containing 10% fetal bovine serum to act as a chemoatractant for the tumor cells. The number of cells migrating through the filter inserts to the filter bottom was determined 18 hr later by measuring the fluorescence of material recovered from the filter bottom using a SyQuest BioLabs Fluorescent Plate Reader (480 nm/529 nm). Data is expressed as Relative Fluorescence Units.
# [7] = system: human umbilical vein endothelial cells; test: Phase contrast micrographs of human umbilical vein endothelial cells co-incubated with KML4A cells; conditions: after 22 hours; thrombin 2 U/ml 16 hours, with or without TP508 50 μg/ml 8 hours pretreatment
# Excerpt: Photomicrographs were captured at various times after addition of KML4A cells using an inverted Leitz Diavert microscope (original magnification, 200×) equipped with Spot Idea™ digital camera (Diagnostic Instruments, Inc.). Micrographs were taken at the center of each well to avoid any differences in original cell density.
Substance,effect on endothelial cell expression of SNAI3 (snail homolog 3 (SNAI3)),effect on endothelial cell expression of MCAM [1],effect on expression of BMP9 [2],endothelial cell damage and loss after co-incubation with KML4A cells [3],effect on endothelial cell expression of MACC1 mRNA [4],increase of binding of KML4A cells [5],effect on KML4A transedothelial migration [6],endothelial cells remaining after co-incubation with KML4A cells [7]
TNF alpha,increases endothelial cell expression of SNAI3,increases endothelial cell expression of MCAM,does not,damaged and released from the culture substrate,increases endothelial cell expression of MACC1,approximately 8 fold,,
Thrombin,,,,damaged and released from the culture substrate,,,increased transedothelial migration,few if any remaining endothelial cells
